Like-named read-outs stand apart in the source and are kept apart here.
How the values were obtained:
tumour = test system: tumour; set-up: method as in Fendler et al. [36]; conditions: after 4 days; ref Fendler et al. [36]; cited from earlier work
LNCaP [1] = conditions: cited from earlier work; for Kidney Uptake / Tumour Uptake: NOD-SCID gamma (LNCaP), ref Kuo et al., 2018 [30]
LNCaP [2] = conditions: cited from earlier work; for Kidney Uptake / Tumour Uptake: BALB/c nu/nu (LNCaP), ref Kelly et al., 2018 [32]
PC-3 PIP [3] = test system: PC-3 PIP; set-up: method as in Umbricht et al., 2018 [60]; conditions: Athymic nude BALB/c (PC-3 PIP), median survival, ref Umbricht et al., 2018 [60], cited from earlier work
PC-3 PIP [4] = test system: PC-3 PIP; set-up: method as in Benesova et al., 2018 [33]; conditions: Athymic nude BALB/c (PC-3 PIP), ref Benesova et al., 2018 [33], cited from earlier work
LNCaP [5] = test system: LNCaP; set-up: method as in Benesova et al., 2015 [31]; conditions: BALB/c nu/nu (LNCaP), ref Benesova et al., 2015 [31], cited from earlier work
RM1-PGLS [6] = test system: RM1-PGLS; set-up: method as in Fendler et al., 2017 [36]; conditions: C57BL/6 (RM1-PGLS), median survival, ref Fendler et al., 2017 [36], cited from earlier work
LNCaP [7] = test system: LNCaP; set-up: method as in Kuo et al., 2018 [30]; conditions: 18.5 MBq; NOD rag gamma (LNCaP); median survival; ref Kuo et al., 2018 [30]; cited from earlier work
PC-3 PIP [8] = test system: PC-3 PIP; set-up: method as in Banerjee et al., 2019 [3]; conditions: 111 MBq; NOD-SCID gamma (PC-3 PIP); median survival; ref Banerjee et al., 2019 [3]; cited from earlier work
C4-2 xenografts = experiment: Biodistribution of radioligand in mice with C4-2 xenografts; format: in vivo, Hsd:Athymic Nude-Foxn1^nu mice; conditions: free ^212Pb control
Description: For the biodistribution and therapy studies, 105 male Hsd:Athymic Nude-Foxn1^nu mice bred at the Department of Comparative Medicine at the Norwegian Radium Hospital (Oslo University Hospital, Oslo, Norway) were used. For the toxicity study, 13 male BALB/cJRj mice from Janvier Labs (Le Genest-Saint-Isle, France) were used. The studies were approved by the Institutional Committee on Research Animal Care (Department of Comparative Medicine, Oslo University Hospital) and the Norwegian Food Safety Authority (Brumunddal, Norway, approval: FOTS ID 22197, 20/49651). All procedures and experiments involving animals in this study were performed in accordance with the Interdisciplinary Principles and Guidelines for the Use of Animals in Research, Marketing and Education (New York Academy of Sciences, New York, USA) and the EU Directive 2010/63/EU for animal experiments as well as the ARRIVE guidelines. The animals were maintained under specific pathogen-free conditions with ad libitum access to food and water. Cages (1–5 mice per cage) were housed in a scantainer, which was maintained at constant temperature (24 °C) and humidity (60%). The mice were around 4–6 weeks in age and weighed 25–35 g at the start of the study.
Mice were inoculated subcutaneously in both flanks with 10 × 10^6 C4-2 cells in supplement-free RPMI1640 medium mixed 1:1 with Matrigel Matrix (Corning, NY, USA) in a total volume of 200 µL. In one of the biodistribution experiments, mice were inoculated with 5 × 10^6 PC-3 cells (200 µL, 1:1 medium:Matrigel Matrix) as a negative control. The tumours were allowed to grow to reach a volume of 300–1500 mm^3 for the biodistribution studies and a volume of 30–300 mm^3 for the therapy studies, and tumour-bearing mice were randomised based on tumour size before radioligand injection. Mice were monitored 2–3 times per week for changes in body weight and tumour size and were euthanised by cervical dislocation if any of the following humane end points were reached: >20% weight loss from initial body weight, rapid weight loss (>10% within 2 days), tumours exceed 20 mm in any direction, ulcerate or interfere with normal behaviour, or any signs of severe sickness or discomfort.
At various time points after injection (from 15 min up to 48 h), organs/tissues were harvested, and radioligand uptake was calculated as a percentage of injected dose per gram tissue (%ID/g). Effective half-lives in selected organs were obtained by fitting monoexponential functions to the biodistribution data (Bq/g vs. time), normalised to 1 MBq/kg, (1) y(t)=a×e^−ln(2)×t/Teffective
The biological half-lives were then calculated by the following formula:(2) 1/Teffective=1/Tbiological+1/Tphysical

[9] = test system: subcutaneous tumour models; conditions: 0.02–0.1 MBq; ref [59],[61]; cited from earlier work
C4-2 = conditions: cited from earlier work; for TI: NOD-SCID gamma (C4-2), median survival, ref Stuparu et al., 2020 [59]; for Toxicity in treated mice: radiosensitive model, ref [59]
RM1-PGLS [10] = conditions: cited from earlier work

SMILES: O=C([O-])CN1CCN(CC(=O)[O-])CCN(CC(=O)NCC2CCC(C(=O)N[C@@H](Cc3ccc4ccccc4c3)C(=O)NCCCC[C@H](NC(=O)N[C@@H](CCC(=O)O)C(=O)O)C(=O)O)CC2)CCN(CC(=O)[O-])CC1.[177Lu+3] (stereo partly drawn) [^177Lu-PSMA-617]
- Tumour level (tumour): 0.7 %ID/g
- Kidney Uptake (LNCaP [1]; 1h): 97.2 ± 19.4 %ID/G
- Tumour Uptake (LNCaP [1]; 1h): 15.1 ± 5.6 %ID/G
- Kidney Uptake (LNCaP [1]; 4h): 26.6 ± 19.1 %ID/G
- Tumour Uptake (LNCaP [1]; 4h): 14.5 ± 1.8 %ID/G
- Kidney Uptake (LNCaP [1]; 24h): 0.6 ± 0.2 %ID/G
- Tumour Uptake (LNCaP [1]; 24h): 10.9 ± 3.3 %ID/G
- Tumour level (LNCaP [1]; after 5 days, ref Kuo et al. [30]): 7 %ID/g
- Kidney Uptake (LNCaP [2]; 4h): 14.1 ± 3.1 %ID/G
- Tumour Uptake (LNCaP [2]; 4h): 14.4 ± 1.1 %ID/G
- Kidney Uptake (LNCaP [2]; 24h): 0.7 ± 0.1 %ID/G
- Tumour Uptake (LNCaP [2]; 24h): 4.6 ± 0.6 %ID/G
- Tumour level (LNCaP [2]; after 4 days, ref Kelly et al. [32]): 3.5 %ID/g
- TI (PC-3 PIP [3]; 2 MBq (2 MBq/nmol)): 1.1
- TI (PC-3 PIP [3]; 5 MBq (5 MBq/nmol)): 1.8
- Kidney Uptake (PC-3 PIP [4]; 1h): 9.8 ± 1.4 %ID/G
- Tumour Uptake (PC-3 PIP [4]; 1h): 44.2 ± 12.0 %ID/G
- Kidney Uptake (PC-3 PIP [4]; 4h): 3.4 ± 3.2 %ID/G
- Tumour Uptake (PC-3 PIP [4]; 4h): 56.0 ± 8.0 %ID/G
- Kidney Uptake (PC-3 PIP [4]; 24h): 0.8 ± 0.9 %ID/G
- Tumour Uptake (PC-3 PIP [4]; 24h): 37.3 ± 5.8 %ID/G
- Kidney Uptake (LNCaP [5]; 1h): 137.2 ± 77.8 %ID/G
- Tumour Uptake (LNCaP [5]; 1h): 11.2 ± 4.2 %ID/G
- Kidney Uptake (LNCaP [5]; 24h): 2.1 ± 1.4 %ID/G
- Tumour Uptake (LNCaP [5]; 24h): 10.6 ± 4.5 %ID/G
- TI (RM1-PGLS [6]; 30 MBq (62 MBq/nmol)): 1.4
- TI (RM1-PGLS [6]; 60 MBq (62 MBq/nmol)): 1.9
- TI (RM1-PGLS [6]; 120 MBq (62 MBq/nmol)): 1.9
- TI (LNCaP [7]): 4.1
- TI (PC-3 PIP [8]): 3.9

SMILES: [212Pb+2] [^212Pb^2+]
- Uptake in kidneys (C4-2 xenografts; 1–8 h post injection): 34.2–49.0 %ID/g
- Uptake in liver (C4-2 xenografts; 1–8 h post injection): 8.3–9.1 %ID/g
- Uptake in bones (C4-2 xenografts; at 1–4 h): 7.3–10.4 %ID/g
- Uptake in bones (C4-2 xenografts; at 8 h): 1.0–2.6 %ID/g

SMILES: O=C([O-])CC[C@H](NC(=O)N[C@@H](CCCCNC(=O)[C@H](Cc1ccc2ccccc2c1)NC(=O)[C@H]1CC[C@H](CNC(=O)CN2CCN(CC(=O)[O-])CCN(CC(=O)[O-])CCN(CC(=O)[O-])CC2)CC1)C(=O)[O-])C(=O)[O-].[225Ac].[H+].[H+].[H+] [^225Ac-PSMA-617]
- Therapeutic Index Range [9]: 1.1–6.7
- TI (C4-2; 0.02 MBq (0.13 MBq/nmol)): 3.6
- Toxicity in treated mice (C4-2; 0.02 and 0.04 MBq): transient weight loss
- TI (C4-2; 0.04 MBq (0.13 MBq/nmol)): 6.7
- TI (C4-2; 0.10 MBq (0.13 MBq/nmol)): 4.2
- Toxicity in treated mice (C4-2; 0.10 MBq): severe weight loss
- TI (RM1-PGLS [10]; 0.03 MBq (0.13 MBq/nmol), Athymic nude mice (RM1-PGLS), median survival, ref Czernin et al., 2020 [61]): 1.1
- Toxicity in treated mice (RM1-PGLS [10]; 0.03 MBq, more radioresistant model, ref [61]): no signs of toxicity

Source: publication PMC8124365 (International Journal of Molecular Sciences, 2021)
